Test system: IMR-90 human lung fibroblasts
Assay: IMR-90 fibroblast culture with peptides, gelatin or collagen added to media
Assay type: cell-based
Conditions: 30 μg/mL added to media, imaged after three days at 37° C.
Description: IMR-90 human lung fibroblasts were purchased from ITCC. Cells were thawed and cultured in EMEM supplemented with 10% FBS and 1% Pen-Strep. Cells were cultured to 80-95% confluency then sub-cultured for three passages prior to utilization in experiments.
Experimental wells were prepared by adding 100 μL cell media to wells of a 96-well gelatin coated plate (corning) or 300 μL media to the wells of a 48-well uncoated cell culture plate. Peptides, as listed below, were added to each well (5 μL to 96 well plates, 10 μL to 48 well plates).
During passaging, cells were quantified, and 2100 IMR-90 cells were added to each well of the 96 well gelatin-coated plate. For the uncoated plate IMR-90 cells were added to each well. Additional media was added to bring the volume to 200 μL (96 well) or 500 μL (48 well). Cells were cultured at 37° C., 5% CO2 for three days then imaged. […] Media was added one day later (day 4) then allowed to culture an additional 2 days before imaging and lysing cells. qPCR was performed on cell lysate following cDNA synthesis (cell-to-CT kit, Thermo Fisher scientific).

Row | Substance | confluence and directionality of cell growth
1 | collagen | higher confluence and more directionality in cell growth
2 | gelatin | higher confluence and more directionality in cell growth

— patent US20240400647A1, “Biologically Active Collagen Hybridizing Peptides” (3HELIX, INC., priority 2021, published 2024)
